From patent EP1019392B1, “TRICYCLIC AMIDES USEFUL FOR INHIBITION OF G-PROTEIN FUNCTION AND FOR TREATMENT OF PROLIFERATIVE DISEASES” (SCHERING CORPORATION, priority 1995, dated 1997) come the findings set out here.

Experiment [1] concerns T24-BAG4 human bladder carcinoma cells expressing an activated H-ras gene. Description: Cell Mat Assay, T24 tumor cells. The experiment is classed as cell-based. To be noted: Homo sapiens, read-out: Tumor (T-24) IC50.
In experiment [2] the target is T1, geranylgeranyl protein transferase (GGPT) I (Rattus norvegicus, UniProt P53610+Q04631).
T1 construct: geranylgeranyl protein transferase (GGPT) I were partially purified from rat brain; from tissue; host or cells: rat brain
Description: In vitro enzyme assay: inhibition of geranylgeranyl protein transferase I (Ras-CVLL as acceptor). To be noted: Table 2; Ras-CVLL as isoprenoid acceptor. It is filed as biochemical. From the text:
• 1. In vitro enzyme assays: Inhibition of farnesyl protein transferase and geranylgeranyl protein transferase. Both farnesyl protein transferase (FPT) and geranylgeranyl protein transferase (GGPT) I were partially purified from rat brain by ammonium sulfate fractionation followed by Q-Sepharose (Pharmacia, Inc.) anion exchange chromatography essentially as described by Yokoyama et al (Yokoyama, K., et al., (1991), A protein geranylgeranyltransferase from bovine brain: Implications for protein prenylation specificity, Proc. Natl. Acad. Sci USA 88: 5302-5306, the disclosure of which is incorporated herein by reference thereto). Human farnesyl protein transferase was also expressed in E. coli, using cDNA clones encoding both the a and b subunits. The methods used were similar to those published (Omer, C. et al., (1993), Characterization of recombinant human farnesyl protein transferase: Cloning, expression, farnesyl diphosphate binding, and functional homology with yeast prenyl-protein transferases, Biochemistry 32:5167-5176). Human farnesyl protein transferase was partially-purified from the soluble protein fraction of E. coli as described above. The tricyclic farnesyl protein transferase inhibitors disclosed herein inhibited both human and rat enzyme with similar potencies. Two forms of val^12-Ha-Ras protein were prepared as substrates for these enzymes, differing in their carboxy terminal sequence. One form terminated in cysteine-valine-leucine-serine (Ras-CVLS) the other in cystein-valine-leucine-leucine (Ras-CVLL). Ras-CVLS is a substrate for the farnesyl protein transferase while Ras-CVLL is a substrate for geranylgeranyl protein transferase I. The cDNAs encoding these proteins were constructed so that the proteins contain an amino-terminal extension of 6 histidine residues. Both proteins were expressed in Escherichia coli and purified using metal chelate affinity chromatography. The radiolabelled isoprenyl pyrophosphate substrates, [^3H]farnesyl pyrophosphate and [^3H]geranylgeranyl pyrophosphate, were purchased from DuPont/New England Nuclear. Several methods for measuring farnesyl protein transferase activity have been described (Reiss et al 1990, Cell 62: 81; Schaber et al 1990, J. Biol. Chem. 265: 14701; Manne et al 1990, PNAS 87: 7541; and Barbacid & Manne 1993, U.S. Patent No. 5,185,248). The activity was assayed by measuring the transfer of [^3H]farnesyl from [^3H]farnesyl pyrophosphate to Ras-CVLS using conditions similar to those described by Reiss et al. 1990 (Cell 62: 81) The reaction mixture contained 40 mM Hepes, pH 7.5; 20 mM magnesium chloride; 5 mM dithiothreitol; 0.25 µM [^3H]farnesyl pyrophosphate; […] Q-Sepharose-purified farnesyl protein transferase; the indicated concentration of tricyclic compound or dimethylsulfoxide (DMSO) vehicle control (5% DMSO final); and […] Ras-CVLS in a total volume of […]. The reaction was allowed to proceed for 30 minutes at room temperature and then stopped with 0.5 ml of 4% sodium dodecyl sulfate (SDS) followed by 0.5 ml of cold 30% TCA. Samples were allowed to sit on ice for 45 minutes and precipitated Ras protein was then collected on GF/C filter paper mats using a Brandel cell harvester. Filter mats were washed once with 6% TCA, 2% SDS and radioactivity was measured in a Wallac 1204 Betaplate BS liquid scintillation counter. Percent inhibition was calculated relative to the DMSO vehicle control. The geranylgeranyl protein transferase I assay was essentially identical to the farnesyl protein transferase assay described above, with two exceptions: [^3H]geranylgeranylpyrophosphate replaced farnesyl pyrophosphate as the isoprenoid donor and Ras-CVLL was the protein acceptor. This is similar to the assay reported by Casey et al (Casey, P.J., et al., (1991), Enzymatic modification of proteins with a geranylgeranyl isoprenoid, Proc. Natl. Acad. Sci, USA 88: 8631-8635, the disclosure of which is incorporated herein by reference thereto). • 2. […]

Structures are written as SMILES.

In general, IC50 refers to the concentration that gives 50% inhibition. On to `O=C(Cc1cc[n+]([O-])cc1)N1CCN([C@H]2c3ccc(Cl)cc3CCc3cc(Br)cnc32)CC1` [Example 16B], for which the figures for the concentration for half-maximal inhibition (IC50) in experiment [1] and in experiment [2] were below 1.6 µM and above 76 µM, respectively.

The molecule `O=C(Cc1cc[n+]([O-])cc1)N1CCN([C@@H]2c3ccc(Cl)cc3CCc3cc(Br)cnc32)CC1` [Example 16A] had an IC50 in experiment [2] above 38 µM.

`O=C(Cc1cc[n+]([O-])cc1)N1CCC(C2c3ccc(Cl)c(Br)c3CCc3cc(Br)cnc32)CC1` (single isomer, unassigned) [Example 14A]: the IC50 in experiment [1] was below 1.6 µM; in experiment [2], above 62 µM.

Turning to `O=C(Cc1cc[n+]([O-])cc1)N1CCC([C@H]2c3ncc(Br)cc3CCc3cc(Cl)cc(Br)c32)CC1` [Example 9], the IC50 in experiment [1] was below 1.6 µM; in experiment [2], above 59 µM.

As for `O=C(Cc1cc[n+]([O-])cc1)N1CCC(=C2c3ncc(Br)cc3CCc3cc(Cl)cc(Br)c32)CC1` (racemic) [Example 7], the IC50 in experiment [1] is below 1.6 µM; in experiment [2], above 300 µM.

In the case of `O=C(Cc1cc[n+]([O-])cc1)N1CCN([C@H]2c3ccc(Cl)c(Br)c3CCc3cc(Br)cnc32)CC1` [Example 5], the IC50 is below 1.6 µM in experiment [1] and above 66 µM in experiment [2].

Consider `O=C(Cc1cc[n+]([O-])cc1)N1CCN([C@H]2c3ncc(Br)cc3CCc3cc(Cl)cc(Br)c32)CC1` [Example 11A], for which the IC50 in experiment [1] is below 1.6 µM; in experiment [2] it was above 66 µM.

Consider `O=C(Cc1cc[n+]([O-])cc1)N1CCC(=C2c3ccc(Cl)c(Br)c3CCc3cc(Br)cnc32)CC1` [Example 2], for which the IC50 in experiment [1] was below 1.6 µM; in experiment [2], above 300 µM.

As to `NC(=O)N1CCC(CC(=O)N2CCC(C3c4ccc(Cl)c(Br)c4CCc4cc(Br)cnc43)CC2)CC1` (single isomer, unassigned) [Example 13], the figures for the 50% inhibitory concentration (IC50) in experiment [1] and in experiment [2] were below 1.6 µM and above 63 µM, respectively.

As for `NC(=O)N1CCC(CC(=O)N2CCC(C3c4ncc(Br)cc4CCc4cc(Cl)cc(Cl)c43)CC2)CC1` (single isomer, unassigned) [Example 18], the IC50 in experiment [2] was above 50 µM.
